According to US12534704B2, “Organ extracellular matrix-derived scaffold for culture and transplantation of organoid and method of preparing the same” (CELLARTGEN INC., priority 2020, dated 2026):

Tests used:
Format in all cases: cell-based
human lung organoid = test: Lung fibrosis model with human lung organoid
Protocol: Specifically, human lung organoids cultured in respective scaffolds were treated with TGF-β for 3 days and then analyzed.

[1] = tested on: human cholangiocyte-derived liver organoids (hCLOs); test: Liver fibrosis model with hCLO; conditions: hCLO in LEM, 3 days
Protocol: Meanwhile, for disease modeling using human cholangiocyte-derived liver organoids (hCLOs) cultured in the LEM, TGF-β was tested at each concentration and the organoids were treated with the most appropriate concentration of TGF-β (80 ng/ml). Then, the possibility of inducing liver fibrosis was checked.
To verify a liver fibrosis model, SMA (Smooth Muscle Actin) was used for staining to determine the accumulated extracellular matrix (ECM) around the organoids. Through this experiment, it was verified that a human liver fibrosis model can be constructed using a liver organoid cultured in the LEM scaffold (FIG. 79B).

[2] = tested on: mouse cholangiocyte-derived liver organoids (CLOs); test: Liver fibrosis model with mouse CLO
Protocol: For disease modeling using an LEM-based liver organoid, TGF-beta was screened at each concentration and the possibility of inducing liver fibrosis was checked. A model was induced using mouse cholangiocyte-derived liver organoids (CLOs) cultured for 7 days. To construct a liver fibrosis model, the organoids were treated with TGF-β at each concentration for 48 hours and observed.

mouse lung organoid = test: Lung fibrosis model with mouse lung organoid
Protocol: Specifically, lung organoids were treated for 3 days at respective concentrations on day 4 of culture and analyzed on day 7. A lung organoid that was not treated with TGF-β (NT, No treatment) was used as a control group.

## TGF-β
Human lung organoid; 3 days after treatment
  SMA, COL1 and VIM expression (immunostaining): increased
Human lung organoid; 3 days, quantitative PCR
  ACTA2, COL1A2 and TNF-α expression: significantly increased
[1]
  liver organoid morphology and growth: deformed in morphology and did not grow well
[2]; 4 ng/ml TGF-β, qPCR
  expression of liver fibrosis markers: highest
[2]; TGF-β each concentration, 48 hours
  liver organoid morphology and growth: changed in morphology and did not grow well
[2]; organoids cultured in LEM
  cholangiocyte marker expression: significantly decreased
  fibrosis marker expression: greatly increased
Mouse lung organoid
  SMA and Col1 expression (immunostaining): increase as the TGF-β treatment concentration increases
Mouse lung organoid; 40 ng/ml
  Col1a2 expression: increased statistically significantly
Mouse lung organoid; TGF-β each concentration, 3 days
  lung organoid shape and growth: changed in shape and did not grow well
